Source: US9999224B2, “Antimicrobial reverse thermal gel and methods of forming and using same” (The Regents of the University of Colorado, a body corporate, priority 2014, dated 2018)

Tested on: cells
Assay: MTT assay, cytotoxicity / biocompatibility (FIG. 12)
Assay type: cell-based
Details: cells plated on dried polymer layer; Q-PEI-PNIPAAm 20% conjugation at 1, 3 and 5%; negative control growth medium, positive control 5% DMSO
Procedure: FIG. 12 illustrates Cytotoxicity Tests of Q-PEI-PNIPAAm. An MTT assay was conducted to assess the biocompatibility of Q-PEI-PNIPAAm. Several methods were used to conduct this test. Previously, the Q-PEI-PNIPAAm polymer had been placed on top of the cells mixed with the media; however, due to the gelling nature of the sample the polymer was not in contact with the cells for long period of time. Due to this, the methodology was modified and the cells were plated on top of the polymer and then trypsinized and re-plated before conducting the test; however, trypsinizing, centrifuging and re-plating cells can lead to higher variability in number of cells per well and since the cells were not left to attached on the plates for long enough the results may be inaccurate. Finally the polymer was dissolved in alcohol, left to evaporate and then the cells were plated on top. Since the MTT measures absorbance, blanks were required for each sample. However, the layer of polymer on the plate needed to be very thin so the polymer concentration tested was 1, 3 and 5%. […] Chlorhexidine 2%, a common skin preparation solution was tested as a control.
A statistically significant difference was observed between the experimental samples, negative and positive control (cells cultured with 5% DMSO) (***indicates […], and **indicates p<0.05.).

Q: For `[H]/N=C(\N/C(=N/[H])NCCCCCCNC(=N)NC(=N)Nc1ccc(Cl)cc1)Nc1ccc(Cl)cc1` [chlorhexidine], which “Metabolic activity of cells (MTT absorbance) versus controls” value is on record?
A: the same difference was obtained
